In PubChem BioAssay (NCI):
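A five-concentration, 48-hour dose response in 96-well plates underlies each endpoint, interpolated linearly between surrounding concentrations. At the GI50, growth is halved. TGI is the concentration that stops growth completely.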

Experiments:
Test in all cases: NCI-60 cell line screen, 48 h
SN12C renal = test system: SN12C renal
786-0 renal = test system: 786-0 renal
IGROV1 ovarian = test system: IGROV1 ovarian
COLO 205 colon = test system: COLO 205 colon
KM12 colon = test system: KM12 colon
UACC-257 melanoma = test system: UACC-257 melanoma
OVCAR-8 ovarian = test system: OVCAR-8 ovarian
SK-OV-3 ovarian = test system: SK-OV-3 ovarian
PC-3 prostate = test system: PC-3 prostate
RXF 393 renal = test system: RXF 393 renal
SR leukemia = test system: SR leukemia
OVCAR-4 ovarian = test system: OVCAR-4 ovarian
SF-268 CNS = test system: SF-268 CNS
M14 melanoma = test system: M14 melanoma
HT29 colon = test system: HT29 colon
MOLT-4 leukemia = test system: MOLT-4 leukemia
HCT-116 colon = test system: HCT-116 colon
RPMI-8226 leukemia = test system: RPMI-8226 leukemia
A498 renal = test system: A498 renal
HCC-2998 colon = test system: HCC-2998 colon
SF-539 CNS = test system: SF-539 CNS
UACC-62 melanoma = test system: UACC-62 melanoma
HOP-62 NSCLC = test system: HOP-62 NSCLC
LOX IMVI melanoma = test system: LOX IMVI melanoma
NCI-H226 lung = test system: NCI-H226 lung
BT-549 breast = test system: BT-549 breast
MCF7 breast = test system: MCF7 breast
EKVX NSCLC = test system: EKVX NSCLC
K-562 leukemia = test system: K-562 leukemia
U251 CNS = test system: U251 CNS
SK-MEL-28 melanoma = test system: SK-MEL-28 melanoma
NCI-H23 lung = test system: NCI-H23 lung
HS 578T breast = test system: HS 578T breast
OVCAR-3 ovarian = test system: OVCAR-3 ovarian
NCI-H522 lung = test system: NCI-H522 lung
NCI/ADR-RES ovarian = test system: NCI/ADR-RES ovarian
MDA-MB-468 breast = test system: MDA-MB-468 breast
OVCAR-5 ovarian = test system: OVCAR-5 ovarian
A549 NSCLC = test system: A549 NSCLC
HOP-92 NSCLC = test system: HOP-92 NSCLC
SW-620 colon = test system: SW-620 colon
T-47D breast = test system: T-47D breast
SF-295 CNS = test system: SF-295 CNS
MDA-MB-435 = test system: MDA-MB-435
HCT-15 colon = test system: HCT-15 colon
ACHN renal = test system: ACHN renal
SK-MEL-5 melanoma = test system: SK-MEL-5 melanoma
CAKI-1 renal = test system: CAKI-1 renal
TK-10 renal = test system: TK-10 renal
MALME-3M melanoma = test system: MALME-3M melanoma
NCI-H460 lung = test system: NCI-H460 lung
DU-145 prostate = test system: DU-145 prostate
HL-60(TB) leukemia = test system: HL-60(TB) leukemia
SNB-19 CNS = test system: SNB-19 CNS
CCRF-CEM leukemia = test system: CCRF-CEM leukemia

## Cc1ccc(Cl)cc1NC(=O)Nc1nc2ccc([N+](=O)[O-])cc2s1
SN12C renal
  GI50: 2.86 µM
  TGI: 9.7 µM
786-0 renal
  GI50: 2.73 µM
  TGI: 10 µM
IGROV1 ovarian
  GI50: 3.92 µM
  TGI: 14.3 µM
COLO 205 colon
  GI50: 1.85 µM
  TGI: 3.58 µM
KM12 colon
  GI50: 3.1 µM
  TGI: 10.3 µM
UACC-257 melanoma
  GI50: 2.21 µM
  TGI: 6.63 µM
OVCAR-8 ovarian
  GI50: 3.07 µM
  TGI: 11.7 µM
SK-OV-3 ovarian
  GI50: 2.19 µM
  TGI: 6.52 µM
PC-3 prostate
  GI50: 2.97 µM
  TGI: 11.3 µM
RXF 393 renal
  GI50: 2.54 µM
  TGI: 9.73 µM
SR leukemia
  GI50: 2.05 µM
  TGI: 5.63 µM
OVCAR-4 ovarian
  GI50: 3.36 µM
  TGI: 14.2 µM
SF-268 CNS
  GI50: 3.48 µM
  TGI: 13.8 µM
M14 melanoma
  GI50: 2.87 µM
  TGI: 10.8 µM
HT29 colon
  GI50: 3.28 µM
  TGI: 10.5 µM
MOLT-4 leukemia
  GI50: 2.3 µM
  TGI: 6.76 µM
HCT-116 colon
  GI50: 2.81 µM
  TGI: 11 µM
RPMI-8226 leukemia
  GI50: 1.85 µM
  TGI: 5.58 µM
A498 renal
  GI50: 2.38 µM
  TGI: 6.29 µM
HCC-2998 colon
  GI50: 3.43 µM
  TGI: 10.9 µM
SF-539 CNS
  GI50: 2.6 µM
  TGI: 6.9 µM
UACC-62 melanoma
  GI50: 2.86 µM
  TGI: 11.5 µM
HOP-62 NSCLC
  GI50: 3.47 µM
  TGI: 11.2 µM
LOX IMVI melanoma
  GI50: 3.28 µM
  TGI: 12.1 µM
NCI-H226 lung
  GI50: 3.34 µM
  TGI: 12 µM
BT-549 breast
  GI50: 2.35 µM
  TGI: 7.92 µM
MCF7 breast
  GI50: 2.71 µM
  TGI: 8.92 µM
EKVX NSCLC
  GI50: 2.79 µM
  TGI: 10.1 µM
K-562 leukemia
  GI50: 2.5 µM
  TGI: 10.2 µM
U251 CNS
  GI50: 3.06 µM
  TGI: 10.7 µM
SK-MEL-28 melanoma
  GI50: 3.42 µM
  TGI: 12.3 µM
NCI-H23 lung
  GI50: 2.27 µM
  TGI: 6.58 µM
HS 578T breast
  GI50: 2.75 µM
  TGI: 9.4 µM
OVCAR-3 ovarian
  GI50: 3.25 µM
  TGI: 11.6 µM
NCI-H522 lung
  GI50: 2.08 µM
  TGI: 7.17 µM
NCI/ADR-RES ovarian
  GI50: 2.54 µM
  TGI: 9.04 µM
MDA-MB-468 breast
  GI50: 2.24 µM
  TGI: 6.6 µM
OVCAR-5 ovarian
  GI50: 3.33 µM
  TGI: 11.9 µM
A549 NSCLC
  GI50: 2.94 µM
  TGI: 10.1 µM
HOP-92 NSCLC
  GI50: 2.29 µM
  TGI: 6.42 µM
SW-620 colon
  GI50: 3.06 µM
  TGI: 12.4 µM
T-47D breast
  GI50: 2.31 µM
  TGI: 7.87 µM
SF-295 CNS
  GI50: 2.24 µM
  TGI: 6.59 µM
MDA-MB-435
  GI50: 3.33 µM
  TGI: 12.2 µM
HCT-15 colon
  GI50: 2.93 µM
  TGI: 11.3 µM
ACHN renal
  GI50: 3.09 µM
  TGI: 10.6 µM
SK-MEL-5 melanoma
  GI50: 1.84 µM
  TGI: 3.6 µM
CAKI-1 renal
  GI50: 3.18 µM
  TGI: 11.7 µM
TK-10 renal
  GI50: 3.49 µM
  TGI: 13 µM
MALME-3M melanoma
  GI50: 2.17 µM
  TGI: 6.39 µM
NCI-H460 lung
  GI50: 2.69 µM
  TGI: 10.2 µM
DU-145 prostate
  GI50: 3.68 µM
  TGI: 14.1 µM
HL-60(TB) leukemia
  GI50: 1.88 µM
  TGI: 4.7 µM
SNB-19 CNS
  GI50: 3.43 µM
  TGI: 12.7 µM
CCRF-CEM leukemia
  GI50: 3.02 µM
  TGI: 12.5 µM
